Data from PMC6979384, “Characterization of the plant homeodomain (PHD) reader family for their histone tail interactions” (Epigenetics & Chromatin, 2020).
Where no end group is shown, it is not given here.

Assays:
Experiment in all cases: Histone peptide microarray
Format in all cases: binding, human
DIDO1 = conditions: GST-tagged DIDO1, arrays performed twice
Outline: (§1)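 Recombinant GST-PHD protein at 0.5 μM; 293-member modified histone peptide array; signals averaged from four repeats ± SD.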

ING5 = conditions: GST-tagged ING5, arrays performed twice
Outline: as §1

KDM4C (TTP) = conditions: arrays performed twice
Outline: as §1

TAF3 = conditions: GST-tagged TAF3, arrays performed twice
Outline: as §1

PHF21A = conditions: GST-tagged PHF21A, arrays performed twice
Outline: as §1

BPTF (PB) = conditions: arrays performed twice
Outline: as §1

MLL5 = conditions: GST-tagged MLL5, arrays performed twice
Outline: as §1

CHD5 (PCC) = conditions: arrays performed twice
Outline: as §1

MORC3 (CW) = conditions: arrays performed twice
Outline: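 A peptide microarray holding 293 synthetic histone peptides with individual or combinatorial modifications was probed with each GST-PHD protein at 0.5 μM. Values represent mean intensity (±SD) from four replicates.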

ING2 = conditions: GST-tagged ING2, arrays performed twice
Outline: as §1

ING1 = conditions: GST-tagged ING1, arrays performed twice
Outline: as §1

PHF2 = conditions: GST-tagged PHF2, arrays performed twice
Outline: as §1

BAZ2B = conditions: GST-tagged BAZ2B, arrays performed twice
Outline: as §1

PHF13 = conditions: GST-tagged PHF13, arrays performed twice
Outline: as §1

ING4 = conditions: GST-tagged ING4, arrays performed twice
Outline: as §1

AIRE (PP) = conditions: GST-tagged AIRE (PP), arrays performed twice
Outline: as §1

TRIM66 (PB) = conditions: arrays performed twice
Outline: as §1

CHD4 (PPCC) = conditions: arrays performed twice
Outline: as §1

KDM5A (1) = conditions: GST-tagged KDM5A (1), arrays performed twice
Outline: as §1

KDM5B (1) = conditions: GST-tagged KDM5B (1), arrays performed twice
Outline: as §1

PHF8 = conditions: GST-tagged PHF8, arrays performed twice
Outline: as §1

CHD5 (PPCC) = conditions: arrays performed twice
Outline: as §1

PHRF1 (RP) = conditions: GST-tagged PHRF1 (RP), arrays performed twice
Outline: as §1

KDM5A (3) = conditions: GST-tagged KDM5A (3), arrays performed twice
Outline: as §1

ING3 = conditions: GST-tagged ING3, arrays performed twice
Outline: as §1

PHF23 = conditions: GST-tagged PHF23, arrays performed twice
Outline: as §1

KDM7A = conditions: GST-tagged KDM7A, arrays performed twice
Outline: as §1

RAG2 = conditions: GST-tagged RAG2, arrays performed twice
Outline: as §1

KDM5B (3) = conditions: GST-tagged KDM5B (3), arrays performed twice
Outline: as §1

DPF2 (PPC2W2) = conditions: arrays performed twice
Outline: as §1

SP140L = conditions: GST-tagged SP140L, arrays performed twice
Outline: as §1

[1] = sheet "Array Heatmap", total replicate number n = 4
[2] = sheet "Array Heatmap", GST-tagged KDM4C (TTP), total replicate number n = 4
[3] = sheet "Array Heatmap", GST-tagged BPTF (PB), total replicate number n = 4
[4] = sheet "Array Heatmap", GST-tagged CHD5 (PCC), total replicate number n = 4
[5] = sheet "Array Heatmap", GST-tagged MORC3 (CW), total replicate number n = 4
[6] = sheet "Array Heatmap", GST-tagged TRIM66 (PB), total replicate number n = 4
[7] = sheet "Array Heatmap", GST-tagged CHD4 (PPCC), total replicate number n = 4
[8] = sheet "Array Heatmap", GST-tagged CHD5 (PPCC), total replicate number n = 4
[9] = sheet "Array Heatmap", GST-tagged DPF2 (PPC2W2), total replicate number n = 4

Substance: H3K56ac (52-61): H3 52-61 (RRYQK(Ac)STELL; UniProt P68431 53-62, looked up, fragment)
- Array Heatmap signal, DIDO1 (DIDO1; [1]): 0.7019
- Array Heatmap signal, ING5 (ING5; [1]): 0.365
- Array Heatmap signal, KDM4C (TTP) (KDM4C (TTP); [2]): 0.4844
- Array Heatmap signal, TAF3 (TAF3; [1]): 0.2638
- Array Heatmap signal, PHF21A (PHF21A; [1]): 0.4604
- Array Heatmap signal, BPTF (PB) (BPTF (PB); [3]): 0.3515
- Array Heatmap signal, MLL5 (MLL5; [1]): 0.5378
- Array Heatmap signal, CHD5 (PCC) (CHD5 (PCC); [4]): 0.7293
- Array Heatmap signal, MORC3 (CW) (MORC3 (CW); [5]): 0.3491
- Array Heatmap signal, ING2 (ING2; [1]): 0.6013
- Array Heatmap signal, ING1 (ING1; [1]): 0.5577
- Array Heatmap signal, PHF2 (PHF2; [1]): 0.5355
- Array Heatmap signal, BAZ2B (BAZ2B; [1]): 0.4578
- Array Heatmap signal, PHF13 (PHF13; [1]): 0.6129
- Array Heatmap signal, ING4 (ING4; [1]): 0.4689
- Array Heatmap signal, AIRE (PP) (AIRE (PP); [1]): 0.4476
- Array Heatmap signal, TRIM66 (PB) (TRIM66 (PB); [6]): 0.5346
- Array Heatmap signal, CHD4 (PPCC) (CHD4 (PPCC); [7]): 0.5636
- Array Heatmap signal, KDM5A (1) (KDM5A (1); [1]): 0.4791
- Array Heatmap signal, KDM5B (1) (KDM5B (1); [1]): 0.5943
- Array Heatmap signal, PHF8 (PHF8; [1]): 0.3512
- Array Heatmap signal, CHD5 (PPCC) (CHD5 (PPCC); [8]): 0.5505
- Array Heatmap signal, PHRF1 (RP) (PHRF1 (RP); [1]): 0.4575
- Array Heatmap signal, KDM5A (3) (KDM5A (3); [1]): 0.4545
- Array Heatmap signal, ING3 (ING3; [1]): 0.475
- Array Heatmap signal, PHF23 (PHF23; [1]): 0.5106
- Array Heatmap signal, KDM7A (KDM7A; [1]): 0.3406
- Array Heatmap signal, RAG2 (RAG2; [1]): 0.2388
- Array Heatmap signal, KDM5B (3) (KDM5B (3); [1]): 0.4628
- Array Heatmap signal, DPF2 (PPC2W2) (DPF2 (PPC2W2); [9]): 0.7093
- Array Heatmap signal, SP140L (SP140L; [1]): 0.3649

Substance: H3Cit2 + K4me3 + K9ac + K14ac + K18ac: H3 1-20
- Array Heatmap signal, DIDO1 (DIDO1; histone peptide array, n of 4): 0.8494
- Array Heatmap signal, ING5 (ING5; histone peptide array, n of 4): 0.327
- Array Heatmap signal, KDM4C (TTP) (KDM4C (TTP); GST-tagged KDM4C (TTP = Tandem Tudor domain + PHD), histone peptide array, n of 4): 0.4327
- Array Heatmap signal, TAF3 (TAF3; histone peptide array, n of 4): 0.287
- Array Heatmap signal, PHF21A (PHF21A; histone peptide array, n of 4): 0.4881
- Array Heatmap signal, BPTF (PB) (BPTF (PB); GST-tagged BPTF (PB = PHD + Bromodomain), histone peptide array, n of 4): 0.3451
- Array Heatmap signal, MLL5 (MLL5; histone peptide array, n of 4): 0.6331
- Array Heatmap signal, CHD5 (PCC) (CHD5 (PCC); GST-tagged CHD5 (PCC = PHD + Dual Chromodomain), histone peptide array, n of 4): 0.7154
- Array Heatmap signal, MORC3 (CW) (MORC3 (CW); GST-tagged MORC3 (CW = CW-type Zn-finger), histone peptide array, n of 4): 0.4875
- Array Heatmap signal, ING2 (ING2; histone peptide array, n of 4): 0.6235
- Array Heatmap signal, ING1 (ING1; histone peptide array, n of 4): 0.5664
- Array Heatmap signal, PHF2 (PHF2; histone peptide array, n of 4): 0.7451
- Array Heatmap signal, BAZ2B (BAZ2B; histone peptide array, n of 4): 0.483
- Array Heatmap signal, PHF13 (PHF13; histone peptide array, n of 4): 0.5903
- Array Heatmap signal, ING4 (ING4; histone peptide array, n of 4): 0.4376
- Array Heatmap signal, AIRE (PP) (AIRE (PP); histone peptide array, n of 4): 0.3964
- Array Heatmap signal, TRIM66 (PB) (TRIM66 (PB); GST-tagged TRIM66 (PB = PHD + Bromodomain), histone peptide array, n of 4): 0.557
- Array Heatmap signal, CHD4 (PPCC) (CHD4 (PPCC); GST-tagged CHD4 (PPCC = Dual PHD + Dual Chromodomain), histone peptide array, n of 4): 0.6008
- Array Heatmap signal, KDM5A (1) (KDM5A (1); histone peptide array, n of 4): 0.4209
- Array Heatmap signal, KDM5B (1) (KDM5B (1); histone peptide array, n of 4): 0.5319
- Array Heatmap signal, PHF8 (PHF8; histone peptide array, n of 4): 0.4072
- Array Heatmap signal, CHD5 (PPCC) (CHD5 (PPCC); GST-tagged CHD5 (PPCC = Dual PHD + Dual Chromodomain), histone peptide array, n of 4): 0.5144
- Array Heatmap signal, PHRF1 (RP) (PHRF1 (RP); histone peptide array, n of 4): 0.4303
- Array Heatmap signal, KDM5A (3) (KDM5A (3); histone peptide array, n of 4): 0.5236
- Array Heatmap signal, ING3 (ING3; histone peptide array, n of 4): 0.4771
- Array Heatmap signal, PHF23 (PHF23; histone peptide array, n of 4): 0.5313
- Array Heatmap signal, KDM7A (KDM7A; histone peptide array, n of 4): 0.3427
- Array Heatmap signal, RAG2 (RAG2; histone peptide array, n of 4): 0.3489
- Array Heatmap signal, KDM5B (3) (KDM5B (3); histone peptide array, n of 4): 0.4827
- Array Heatmap signal, DPF2 (PPC2W2) (DPF2 (PPC2W2); GST-tagged DPF2 (PPC2W2 = Dual PHD + C2W2-type Zn-finger), histone peptide array, n of 4): 0.6832
- Array Heatmap signal, SP140L (SP140L; histone peptide array, n of 4): 0.3551

Substance: H3K9me2 + K27me1 (1-32): H3 1-20
- Array Heatmap signal, DIDO1 (DIDO1; [1]): 0.7123
- Array Heatmap signal, ING5 (ING5; [1]): 0.3315
- Array Heatmap signal, KDM4C (TTP) (KDM4C (TTP); [2]): 0.4309
- Array Heatmap signal, TAF3 (TAF3; [1]): 0.256
- Array Heatmap signal, PHF21A (PHF21A; [1]): 0.4343
- Array Heatmap signal, BPTF (PB) (BPTF (PB); [3]): 0.3305
- Array Heatmap signal, MLL5 (MLL5; [1]): 0.5528
- Array Heatmap signal, CHD5 (PCC) (CHD5 (PCC); [4]): 0.7436
- Array Heatmap signal, MORC3 (CW) (MORC3 (CW); [5]): 0.4746
- Array Heatmap signal, ING2 (ING2; [1]): 0.6071
- Array Heatmap signal, ING1 (ING1; [1]): 0.5289
- Array Heatmap signal, PHF2 (PHF2; [1]): 0.587
- Array Heatmap signal, BAZ2B (BAZ2B; [1]): 0.4338
- Array Heatmap signal, PHF13 (PHF13; [1]): 0.5951
- Array Heatmap signal, ING4 (ING4; [1]): 0.4312
- Array Heatmap signal, AIRE (PP) (AIRE (PP); [1]): 0.4239
- Array Heatmap signal, TRIM66 (PB) (TRIM66 (PB); [6]): 0.6366
- Array Heatmap signal, CHD4 (PPCC) (CHD4 (PPCC); [7]): 0.5346
- Array Heatmap signal, KDM5A (1) (KDM5A (1); [1]): 0.4383
- Array Heatmap signal, KDM5B (1) (KDM5B (1); [1]): 0.6244
- Array Heatmap signal, PHF8 (PHF8; [1]): 0.3466
- Array Heatmap signal, CHD5 (PPCC) (CHD5 (PPCC); [8]): 0.5173
- Array Heatmap signal, PHRF1 (RP) (PHRF1 (RP); [1]): 0.767
- Array Heatmap signal, KDM5A (3) (KDM5A (3); [1]): 0.5076
- Array Heatmap signal, ING3 (ING3; [1]): 0.4513
- Array Heatmap signal, PHF23 (PHF23; [1]): 0.5468
- Array Heatmap signal, KDM7A (KDM7A; [1]): 0.3071
- Array Heatmap signal, RAG2 (RAG2; [1]): 0.2412
- Array Heatmap signal, KDM5B (3) (KDM5B (3); [1]): 0.4925
- Array Heatmap signal, DPF2 (PPC2W2) (DPF2 (PPC2W2); [9]): 0.7331
- Array Heatmap signal, SP140L (SP140L; [1]): 0.3321
